A short description of data set [1]: Photostability of the compound in nitrogen-saturated phosphate buffer solution under 2.5 mW/cm'2 white light. Format: physicochemical.
In a further data set the test system is Staphylococcus aureus. The data set is described as follows: Antibacterial activity against Staphylococcus aureus assessed as decrease in cell viability at > 50 uM after 30 mins under 2.5 mW/cm'2 white light by confocal microscopy/UV-diode laser method. Format: functional, organism-based.
The nature of data set [2]: 2-octanol-aqueous buffer partition coefficient, logP of the compound at pH 7.4. In kind it is physicochemical.
Data set [3] is described as follows: Photostability of the compound in air-saturated phosphate buffer solution under 2.5 mW/cm'2 white light. Format: physicochemical.
In another data set the test system is Bacillus cereus. The data set is described as follows: Antibacterial activity against Bacillus cereus assessed as decrease in cell viability at > 50 uM after 30 mins under 2.5 mW/cm'2 white light by confocal microscopy/UV-diode laser method. Format: functional, organism-based.

Stability, Activity and logD data for three compounds are collected here from ChEMBL document CHEMBL3351674, “Novel polycarboxylate porphyrins: synthesis, characterization, photophysical properties and preliminary antimicrobial study against Gram-positive bacteria” (Bioorg Med Chem Lett, 2015).

Active and inactive are the calls of the source. No cut-off for these calls is given here.

In general, logD refers to lipophilicity at a set pH, counting ionised and neutral species. A higher logD goes with higher lipophilicity.

As for `Cc1cc(C)c(-c2c3nc(c(-c4c(OCC(=O)O)cc(OCC(=O)O)cc4OCC(=O)O)c4ccc([nH]4)c(-c4c(C)cc(C)cc4C)c4nc(c(-c5c(OCC(=O)O)cc(OCC(=O)O)cc5OCC(=O)O)c5ccc2[nH]5)C=C4)C=C3)c(C)c1`, the Stability entry in data set [1] is “Stable”; in data set [3], “Unstable”. Moreover, the outcome in the data set on Staphylococcus aureus and with Bacillus cereus was Active. In data set [2], this compound had a logD of -0.77.
With `O=C(O)COc1cc(OCC(=O)O)c(-c2c3nc(c(-c4ccc(C(=O)O)cc4)c4ccc([nH]4)c(-c4c(OCC(=O)O)cc(OCC(=O)O)cc4OCC(=O)O)c4nc(c(-c5ccc(C(=O)O)cc5)c5ccc2[nH]5)C=C4)C=C3)c(OCC(=O)O)c1`, the Stability result in data set [1] is on record as “Stable”; in data set [3], “Unstable”. Moreover, the outcome with Staphylococcus aureus was Active. In data set [2], this compound yielded a logD of -2.17. Besides, in the data set with Bacillus cereus, the result was inactive.
Turning to `CC(C)(C)OC(=O)COc1cc(OCC(=O)OC(C)(C)C)c(-c2c3nc(c(-c4ccc(C(=O)O)cc4)c4ccc([nH]4)c(-c4c(OCC(=O)OC(C)(C)C)cc(OCC(=O)OC(C)(C)C)cc4OCC(=O)OC(C)(C)C)c4nc(c(-c5ccc(C(=O)O)cc5)c5ccc2[nH]5)C=C4)C=C3)c(OCC(=O)OC(C)(C)C)c1`, the logD in data set [2] was determined as 1.66.
